Assay results reported in patent US5430043A, “Platelet aggregation inhibitors” (G. D. Searle & Co., priority 1993, dated 1995).
pIC50: −log10 of the molar value. Where a name gives a salt, the structure may show the parent alone.

Legend:
[1] = test system: Platelet aggregation in PRP (dog); assay: In-Vitro Platelet Aggregation in PRP (Dog), collagen-induced; assay type: cell-based; conditions: collagen 33 μg/ml final
Experimental: In-Vitro Platelet Aggregation in PRP--(Dog)
Healthy male or female dogs were fasted for 8 hours prior to drawing blood; then 60 ml whole blood was collected using a butterfly needle and 60 cc plastic syringe with 6 ml of 0,129 M buffered sodium citrate (3.8%) (drawn from a minimum of 3 dogs and blood was pooled). The syringe was rotated carefully as blood was drawn to mix the citrate. Platelet-rich plasma (PRP) was prepared by centrifugation at 975×g for 3.17 minutes at room temperature, allowing the centrifuge to coast to a stop without braking. The PRP was removed from the blood with a plastic pipette and placed in a plastic capped 50 ml Corning conical sterile centrifuge tube which was held at room temperature. Platelet poor plasma (PPP) was prepared by centrifuging the remaining blood at 2000×g for 15 minutes at room temperature allowing the centrifuge to coast to a stop without braking. The platelet count in the PRP was routinely 2-4×10^8 platelets per ml. 400 μl of the PRP preparation and 50 μl of the compound to be tested or saline were preincubated for 2 minutes at 37° C. in a BioData aggregometer (BioData, Horsham, Pa.). 50 μl of collagen (diluted 1:3 with 5% dextrose and water solution, 33 μg/ml final concentration, equine tendon, Chronolog, Havertown, Pa.) was added to the cuvettes and the aggregation was monitored for 3 minutes. All compounds are tested in duplicate. Results are calculated as follows: [formula]
The assay results for the compounds of the present invention and their median inhibitory concentrations (IC50) are recorded in Tables I-III.

[2] = test system: collagen-induced platelet aggregation; assay: I.V. compound (acid) administration to dogs; inhibition of collagen-induced platelet aggregation; assay type: in vivo; conditions: dog, 1 mg/kg
Experimental: I.V. Compound Administration
Dogs were placed in a dog sling. Two control blood samples (2×2 ml) were collected and PRP was prepared and percent aggregation was determined to establish a baseline as stated above. Compound (in the acid form) in 4 ml of saline/water (50:50) was injected into the cephalic vein over one minute with a syringe connected to a 23 g butterfly infusion set. Blood samples (2×2 ml) were drawn at 5 minute intervals after dosing for the first 15 minutes, 15 minute intervals until 60 minutes, 30 minute intervals until 2 hours, hourly until ~6 hours, again at 24 hours or until baseline aggregation was reached. PRP was prepared for aggregation studies as previously described. PPP was prepared for determination of concentration of compound by bioassay (see below).

[3] = test system: collagen-induced platelet aggregation; assay: Oral (IG) administration of compound (ester) to dogs; inhibition of collagen-induced platelet aggregation; assay type: in vivo; conditions: dog
Experimental: Oral Administration of Compound
Dogs (n=2) were weighed and two control blood samples (2×2 ml) were drawn via venipuncture from the cephalic vein. Blood was centrifuged at 266×g for 6 minutes to prepare PRP. Percent aggregation prior to compound administration (baseline) was established by adding 50 μl of collagen to 450 μl of PRP and measuring aggregation for 4 minutes. Compound (in the ester form) was administered orally (single dose) by gelatin capsule. Blood samples (2×2 ml) were drawn at selected time intervals after dosing. Inhibition of collagen-induced platelet aggregation was determined by comparing aggregation responses in the samples containing compound with the responses of samples before compound administration (baseline). The remaining blood was centrifuged for 2 minutes at 12,000 ×g to prepare PPP for determination of concentration of compound in the plasma samples by bioassay (see below).

[4] = Canis lupus familiaris, Platelet

N=C(N)c1ccc(N2CCN(CC(=O)NCCC(=O)O)C2=O)cc1 [Example 5, 3-[[[[1-[4-(aminoiminomethyl)phenyl]-4,5-dihydro-2(3H]-oxo-1H-imidazol-3-yl]methyl]carbonyl]amino]propanoic acid, trifluoroacetate]
pIC50 [1, 4]: 6.72 | Hours duration (IV - acid) [2]: 24 h | % inhibition (IV - acid) ([2]; 24 hr): 31%

N=C(N)c1ccc(-n2ccn(CC(=O)NC(CC(=O)O)c3cccnc3)c2=O)cc1 (stereo not drawn) [Example 22, β-[[[[1-[4-(aminoiminomethyl)phenyl]-2(3H)-oxo-1H-imidazol-3-yl]methyl]carbonyl]amino]-3-pyridinepropanoic acid]
pIC50 [1, 4]: 6.77 | Hours duration (IV - acid) [2]: 24 h | % inhibition (IV - acid) ([2]; 24 hr): 40%

C=CC(CC(=O)OCC)NC(=O)Cn1ccn(-c2ccc(C(=N)N)cc2)c1=O (stereo in doubt) [Example 11, Ethyl 3-[[[[1-[4-(aminoiminomethyl)phenyl]-2(3H)-oxo-1H-imidazol-3-yl]methyl]carbonyl]amino]pent-4(3S)-enoate trifluoroacetate]
Hours duration (IG - ester) ([3]; 5 mg/kg): 24 h | % inhibition (IG - ester) ([3]; 5 mg/kg, 24 hr): 35% | Max % inhibition (IG - ester) ([3]; 5 mg/kg, max @ 3 hours): 71%

CCOC(=O)C[C@H](NC(=O)CN1CCN(c2ccc(C(=N)N)cc2)C1=O)c1cccnc1 [Example 23, Ethyl β-[[[[1-[4-(aminoiminomethyl]phenyl]-4,5-dihydro-2(3H)-oxo-1H-imidazol-3-yl]methyl]carbonyl]amino]-3(S)-pyridinepropanoate]
Hours duration (IG - ester) ([3]; 5 mg/kg): 24 h | % inhibition (IG - ester) ([3]; 5 mg/kg, 24 hr): 88%

N=C(N)c1ccc(N2CCCN(CC(=O)NCCC(=O)O)C2=O)cc1 [Example 26, 3-[[[[1-[4-(Aminoiminomethyl)phenyl]-1,4,5,6-tetrahydro-2(3H)-oxopyrimidin-3-yl]methyl]carbonyl]amino]propanoic acid, trifluoroacetate]
inhibition at 1 µM [1, 4]: 18%

N=C(N)c1ccc(-n2ccn(CC(=O)NCCC(=O)O)c2=O)cc1 [Example 3, 3-[[[[1-[4-(aminoiminomethyl)phenyl]-2(3H)-oxo-1H-imidazol-3-yl]methyl]carbonyl]amino]propanoic acid, trifluoroacetate]
pIC50 [1, 4]: 5.70

N=C(N)c1ccc(-n2ccn(CC(=O)NC(CC(=O)O)c3ccoc3)c2=O)cc1 (stereo not drawn) [Example 20, β-[[[[1-[4-(aminoiminomethyl)phenyl]-2(3H)-oxo-1H-imidazol-3-yl]methyl]carbonyl]amino]-3-furanpropanoic acid trifluoroacetate]
pIC50 [1, 4]: 6.15

N=C(N)c1ccc(N2CCN(CC(=O)NCCCC(=O)O)C2=O)cc1 [Example 7, 4-[[[[1-[4-(Aminoiminomethyl)phenyl]-4,5-dihydro-2(3H)-oxo-1H-imidazol-3-yl]methyl]carbonyl]amino]butanoic acid]
pIC50 [1, 4]: 5.96

COC(=O)CC(CC(=O)O)NC(=O)CN1CCN(c2ccc(C(=N)N)cc2)C1=O (racemic) [Example 14, (±)Methylhydrogen3-[[[[1-[4-(aminoiminomethyl)phenyl]-4,5-dihydro-2(3H)-oxo-1H-imidazol-3-yl]methyl]carbonyl]amino]pentanedioate]
pIC50 [1, 4]: 6.74

CCOC(=O)CCNC(=O)CN1CCN(c2ccc(C(=N)N)cc2)C1=O [Example 8, Ethyl 3-[[[[1-[4-(aminoiminomethyl)phenyl]-4,5-dihydro-2(3H)-oxo-1H-imidazol-3-yl]methyl]carbonyl]amino]propanoate]
Hours duration (IG - ester) ([3]; 2.5 mg/kg): 3.1 h | % inhibition (IG - ester) ([3]; 2.5 mg/kg, 3.1 hr): 16%

CCOC(=O)CC(C)NC(=O)Cn1ccn(-c2ccc(C(=N)N)cc2)c1=O (stereo not shown) [Example 9, Ethyl 3-[[[[1-[4-(aminoiminomethyl)phenyl]-2(3H)-oxo-1H-imidazol-3-yl]methyl]carbonyl]amino]butanoate trifluoroacetate]
Hours duration (IG - ester) ([3]; 10 mg/kg): 4.5 h | % inhibition (IG - ester) ([3]; 10 mg/kg, 4.5 hr): 33%

CC(CC(=O)O)NC(=O)Cn1ccn(-c2ccc(C(=N)N)cc2)c1=O (stereo not shown) [Example 10, 3-[[[1-[4-(aminoiminomethyl)phenyl]-2(3H)-oxo-1H-imidazol-3-yl]methyl]carbonyl]amino]butanoic acid trifluoroacetate]
pIC50 [1, 4]: 6.21

CCOC(=O)CC(NC(=O)Cn1ccn(-c2ccc(C(=N)N)cc2)c1=O)c1ccoc1 (stereo not drawn) [Example 19, Ethyl β-[[[[1-[4-(aminoiminomethyl)phenyl]-2(3H)-oxo-1H-imidazol-3-yl]-methyl]carbonyl]amino]-3-furanpropanoate trifluoroacetate]
Hours duration (IG - ester) ([3]; 10 mg/kg): 24 h | % inhibition (IG - ester) ([3]; 10 mg/kg, 24 hr): 28% | Max % inhibition (IG - ester) ([3]; 10 mg/kg, max @ 6 hours): 85%

C=CC(CC(=O)O)NC(=O)Cn1ccn(-c2ccc(C(=N)N)cc2)c1=O (stereo in doubt) [Example 12, 3-[[[[1-[4-(aminoiminomethyl)phenyl]-2(3H)-oxo-1H-imidazol-3-yl]methyl]carbonyl]amino]-4(3S)-pentenoic acid trifluoroacetate]
pIC50 [1, 4]: 6.19 | Hours duration (IV - acid) [2]: 6 h | % inhibition (IV - acid) ([2]; 6 hr): 54%

N=C(N)c1ccc(-n2ccn(CCC(=O)NCCC(=O)O)c2=O)cc1 [Example 16, 3-[[[[1-[4-(aminoiminomethyl)phenyl]-2(3H)-oxo-1H-imidazol-3-yl]ethyl]carbonyl]amino]propanoic acid]
pIC50 [1, 4]: 6.47

COC(=O)CC(CC(=O)OC)NC(=O)CN1CCN(c2ccc(C(=N)N)cc2)C1=O [Example 13, Dimethyl 3-[[[[1-[4-(aminoiminomethyl)phenyl]-4,5-dihydro-2(3H)-oxo-1H-imidazol-3-yl]methyl]carbonyl]amino]pentanedioate]
Hours duration (IG - ester) ([3]; 5 mg/kg): 24 h | % inhibition (IG - ester) ([3]; 5 mg/kg, 24 hr): 14% | Max % inhibition (IG - ester) ([3]; 5 mg/kg, max @ 6 hours): 63%

CCOC(=O)CC(NC(=O)Cn1ccn(-c2ccc(C(=N)N)cc2)c1=O)c1cccnc1 (stereo not drawn) [Example 21, Ethyl β-[[[[1-[4-(aminoiminomethyl)phenyl]-2(3H)-oxo-1H-imidazol-3-yl]methyl]carbonyl]amino]-3-pyridinepropanoate]
Hours duration (IG - ester) ([3]; 10 mg/kg): 24 h | % inhibition (IG - ester) ([3]; 10 mg/kg, 24 hr): 43%

β-[[[[4-(aminoiminomethyl)phenyl]-4,5-dihydro-2(3H)-oxo-1H-imidazol-3- yl]methyl]carbonyl]amino]-3-pyridinepropanoic acid [Example 24]
pIC50 [1]: 7.10 | Hours duration (IV - acid) [2]: 27 h | % inhibition (IV - acid) ([2]; 27 hr): 98%

N=C(N)c1ccc(-n2ccn(CC(=O)NCCCC(=O)O)c2=O)cc1 [Example 4, 4-[[[[1-[4-(aminoiminomethyl)phenyl]-2(3H)-oxo-1H-imidazol-3-yl]methyl]carbonyl]amino]butanoic acid trifluoroacetate]
inhibition at 1 µM [1, 4]: 0%
